# Data as given in US20230391760A1, “HETEROCYCLIC GLP-1 AGONISTS” (Gasherbrum Bio, Inc., priority 2020, published 2023).
# Molecular target: GLP-1 Receptor (Homo sapiens, UniProt P43220)
# Assay: GLP-1R agonist cAMP stimulation assay (HEK293/GLP1R/CRE-LUC cells, cAMP dynamic 2 Kit)
# Type: cell-based
# Details: HEK293/CRE-Luc cell line stably expressing the GLP-1 Receptor, 30 min at 37° C.
# Summary of the method: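 cAMP measured by HTRF competition (d2-labelled cAMP with cryptate antibody, 1 h, room temperature, protected from light). Before that, GLP1R/CRE-Luc HEK293 cells (1000/well) were exposed for 30 min at 37 °C to half-log compound dilutions in DPBS containing IBMX 0.5 mM and BSA 0.1%.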
# Sequence of GLP-1 Receptor (P43220 24-463, species assumed): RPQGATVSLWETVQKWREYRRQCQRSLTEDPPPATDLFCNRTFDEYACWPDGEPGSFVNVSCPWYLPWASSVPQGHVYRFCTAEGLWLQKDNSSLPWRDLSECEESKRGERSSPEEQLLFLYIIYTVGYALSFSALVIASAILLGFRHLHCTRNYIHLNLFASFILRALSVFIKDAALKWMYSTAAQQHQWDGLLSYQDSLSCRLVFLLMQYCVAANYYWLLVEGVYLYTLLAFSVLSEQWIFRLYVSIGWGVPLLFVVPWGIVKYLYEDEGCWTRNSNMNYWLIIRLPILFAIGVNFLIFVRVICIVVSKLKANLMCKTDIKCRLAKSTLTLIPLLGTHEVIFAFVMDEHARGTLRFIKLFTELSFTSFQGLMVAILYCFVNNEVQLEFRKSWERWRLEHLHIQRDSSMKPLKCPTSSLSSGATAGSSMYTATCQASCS
row,SMILES,EC50 [nM]
1,"CC1(c2ccc(Cl)cc2F)Oc2cccc(C3CCN(Cc4nc5cc(-c6nnc(C(F)(F)F)[nH]6)cnc5n4C[C@@H]4CCO4)CC3)c2O1 (single isomer, unassigned) [Compound 224b]",1.7
2,"Cc1nnc(-c2cnc3c(c2)nc(CN2CCC(c4cccc5c4OC(C)(c4ccc(Cl)cn4)O5)CC2)n3C[C@@H]2CCO2)[nH]1 (stereo partly drawn) [Compound 269a, 5-chloro-2-[2-methyl-4-(1-{[6-(5-methyl-4H-1,2,4-triazol-3-yl)-3-{[(2S)-oxetan-2-yl]methyl}-3H-imidazo[4,5-b]pyridin-2-yl]methyl}piperidin-4-yl)-2H-1,3-benzodioxol-2-yl]pyridine]",2
3,"Cc1cncc(C)c1C(=O)Nc1ccc2c(c1)nc(CN1CCC(c3cccc(OCc4ccc(Cl)cc4F)n3)CC1)n2C[C@@H]1CCO1 [Compound 191a, N-{2-[(4-{6-[(4-chloro-2-fluorophenyl)methoxy]pyridin-2-yl}piperidin-1-yl)methyl]-1-{[(2S)-oxetan-2-yl]methyl}-1H-1,3-benzodiazol-5-yl}-3,5-dimethylpyridine-4-carboxamide]",8.8
4,"Fc1cc(Cl)ccc1COc1cccc(C2CCN(Cc3nc4cc(-c5ccn(C6CCCOC6)n5)ccc4n3C[C@@H]3CCO3)CC2)n1 (stereo partly drawn) [Compound 216a, 2-[(4-{6-[(4-chloro-2-fluorophenyl)methoxy]pyridin-2-yl}piperidin-1-yl)methyl]-5-[1-(oxan-3-yl)-1H-pyrazol-3-yl]-1-{[(2S)-oxetan-2-yl]methyl}-1H-1,3-benzodiazole]",8.8
5,"CC1(c2ccc(Cl)cn2)Oc2cccc(C3CCN(Cc4nc5cc(-c6n[nH]c(C(F)(F)F)n6)ncc5n4C[C@@H]4CCO4)CC3)c2O1 (stereo partly drawn) [Compound 344a, 5-chloro-2-(2-methyl-4-{1-[(3-{[(2S)-oxetan-2-yl]methyl}-6-[5-(trifluoromethyl)-4H-1,2,4-triazol-3-yl]-3H-imidazo[4,5-c]pyridin-2-yl)methyl]piperidin-4-yl}-2H-1,3-benzodioxol-2-yl)pyridine]",0.022
6,"O=c1[nH]c(-c2cc3nc(CN4CCC(c5cccc6c5OC[C@@H](c5ccc(Cl)cc5)O6)CC4)n(C[C@@H]4CCO4)c3cn2)no1 [Compound 422a, 3-[2-({4-[(2R)-2-(4-chlorophenyl)-2,3-dihydro-1,4-benzodioxin-5-yl]piperidin-1-yl}methyl)-3-{[(2S)-oxetan-2-yl]methyl}-3H-imidazo[4,5-c]pyridin-6-yl]-4,5-dihydro-1,2,4-oxadiazol-5-one]",0.17
7,"CC1(c2ccc(Cl)cn2)Oc2cccc(C3CCN(Cc4nc5cc(-c6noc(=O)[nH]6)cnc5n4C[C@@H]4CCO4)CC3)c2O1 (stereo partly drawn) [Compound 332a, 3-[2-({4-[2-(5-chloropyridin-2-yl)-2-methyl-2H-1,3-benzodioxol-4-yl]piperidin-1-yl}methyl)-3-{[(2S)-oxetan-2-yl]methyl}-3H-imidazo[4,5-b]pyridin-6-yl]-4,5-dihydro-1,2,4-oxadiazol-5-one]",1.6
8,"C[C@]1(c2ccc(Cl)cn2)Oc2cccc(C3CCN(Cc4nc5cc(-c6nnc(C#N)[nH]6)nnc5n4C[C@@H]4CCO4)CC3)c2O1 [Compound 482a, 5-[6-({4-[(2S)-2-(5-chloropyridin-2-yl)-2-methyl-2H-1,3-benzodioxol-4-yl]piperidin-1-yl}methyl)-7-{[(2S)-oxetan-2-yl]methyl}-7H-imidazo[4,5-c]pyridazin-3-yl]-4H-1,2,4-triazole-3-carbonitrile]",0.032
9,"CC1(c2ccc(Cl)cc2F)Oc2cccc(C3CCN(Cc4nc5cc(-c6cn(CCO)nn6)ccc5n4C[C@@H]4CCO4)CC3)c2O1 (stereo partly drawn) [Compound 228a, 2-{4-[2-({4-[2-(4-chloro-2-fluorophenyl)-2-methyl-2H-1,3-benzodioxol-4-yl]piperidin-1-yl}methyl)-1-{[(2S)-oxetan-2-yl]methyl}-1H-1,3-benzodiazol-5-yl]-1H-1,2,3-triazol-1-yl}ethan-1-ol]",0.19
10,"Fc1cc(Cl)ccc1COc1cccc(C2CCN(Cc3nc4cc(-c5cn(C6CCCOC6)nn5)ccc4n3C[C@@H]3CCO3)CC2)n1 (stereo partly drawn) [Compound 209a, 2-[(4-{6-[(4-chloro-2-fluorophenyl)methoxy]pyridin-2-yl}piperidin-1-yl)methyl]-5-[1-(oxan-3-yl)-1H-1,2,3-triazol-4-yl]-1-{[(2S)-oxetan-2-yl]methyl}-1H-1,3-benzodiazole]",3.2
11,"CC1(c2ccc(Cl)cn2)Oc2cccc(C3CCN(Cc4nc5cc(-c6nnn[nH]6)ncc5n4C[C@@H]4CCO4)CC3)c2O1 (stereo partly drawn) [Compound 450a, 5-chloro-2-(2-methyl-4-{1-[(3-{[(2S)-oxetan-2-yl]methyl}-6-(1H-1,2,3,4-tetrazol-5-yl)-3H-imidazo[4,5-c]pyridin-2-yl)methyl]piperidin-4-yl}-2H-1,3-benzodioxol-2-yl)pyridine]",0.062
12,"O=C(Nc1ccc2c(c1)nc(CN1CCC(c3cccc(OCc4ccc(Cl)cc4F)n3)CC1)n2C[C@@H]1CCO1)c1ccncc1 [Compound 171a, N-{2-[(4-{6-[(4-chloro-2-fluorophenyl)methoxy]pyridin-2-yl}piperidin-1-yl)methyl]-1-{[(2S)-oxetan-2-yl]methyl}-1H-1,3-benzodiazol-5-yl}pyridine-4-carboxamide]",0.27
13,"CC1(c2ccc(Cl)nc2)Oc2cccc(C3CCN(Cc4nc5cc(-c6nnc(C(F)(F)F)[nH]6)ncc5n4C[C@@H]4CCO4)CC3)c2O1 (stereo partly drawn) [Compound 467a, 2-chloro-5-(2-methyl-4-{1-[(3-{[(2S)-oxetan-2-yl]methyl}-6-[5-(trifluoromethyl)-4H-1,2,4-triazol-3-yl]-3H-imidazo[4,5-c]pyridin-2-yl)methyl]piperidin-4-yl}-2H-1,3-benzodioxol-2-yl)pyridine]",0.076
14,"Fc1cc(Cl)ccc1COc1ccc(F)c(N2CCN(Cc3nc4cc(-c5nnc(C(F)(F)F)[nH]5)cnc4n3C[C@@H]3CCO3)CC2)n1 [Compound 513a, 1-{6-[(4-chloro-2-fluorophenyl)methoxy]-3-fluoropyridin-2-yl}-4-[(3-{[(2S)-oxetan-2-yl]methyl}-6-[5-(trifluoromethyl)-4H-1,2,4-triazol-3-yl]-3H-imidazo[4,5-b]pyridin-2-yl)methyl]piperazine]",0.064
15,"N#Cc1ccc(COc2cc(C3=CCN(Cc4nc5cc(-c6noc(=O)[nH]6)cnc5n4C[C@@H]4CCO4)CC3)ccc2F)c(F)c1 [Compound 295a, 3-fluoro-4-[(2-fluoro-5-{1-[(3-{[(2S)-oxetan-2-yl]methyl}-6-(5-oxo-4,5-dihydro-1,2,4-oxadiazol-3-yl)-3H-imidazo[4,5-b]pyridin-2-yl)methyl]-1,2,3,6-tetrahydropyridin-4-yl}phenoxy)methyl]benzonitrile]",2.6
16,"Fc1cc(Cl)ccc1COc1nc(N2CCN(Cc3nc4cc(-c5nnc(C(F)(F)F)[nH]5)ncc4n3C[C@@H]3CCO3)CC2)ncc1F [Compound 490a, 4-[(4-chloro-2-fluorophenyl)methoxy]-5-fluoro-2-{4-[(3-{[(2S)-oxetan-2-yl]methyl}-6-[5-(trifluoromethyl)-4H-1,2,4-triazol-3-yl]-3H-imidazo[4,5-c]pyridin-2-yl)methyl]piperazin-1-yl}pyrimidine]",0.086
17,"O=C(CC1CC1)Nc1ccc2c(c1)nc(CN1CCC(c3cccc(OCc4ccc(Cl)cc4F)n3)CC1)n2C[C@@H]1CCO1 [Compound 106a, (S)—N-(2-((4-(6-((4-chloro-2-fluorobenzyl)oxy)pyridin-2-yl)piperidin-1-yl)methyl)-1-(oxetan-2-ylmethyl)-1H-benzo[d]imidazol-5-yl)-2-cyclopropylacetamide]",1.19
18,"CC1(c2ccc(Cl)cc2F)Oc2cccc(C3CCN(Cc4nc5cc(-c6nnn[nH]6)c(F)cc5n4C[C@@H]4CCO4)CC3)c2O1 (stereo partly drawn) [Compound 223a, 2-({4-[2-(4-chloro-2-fluorophenyl)-2-methyl-2H-1,3-benzodioxol-4-yl]piperidin-1-yl}methyl)-6-fluoro-1-{[(2S)-oxetan-2-yl]methyl}-5-(1H-1,2,3,4-tetrazol-5-yl)-1H-1,3-benzodiazole]",0.12
19,"Cc1nnc(-c2ccc3c(c2)nc(CN2CCC(c4cccc5c4O[C@@](C)(c4ccc(C#N)cc4F)O5)CC2)n3C[C@@H]2CCO2)[nH]1 [Compound 410a, 3-fluoro-4-[(2S)-2-methyl-4-(1-{[5-(5-methyl-4H-1,2,4-triazol-3-yl)-1-{[(2S)-oxetan-2-yl]methyl}-1H-1,3-benzodiazol-2-yl]methyl}piperidin-4-yl)-2H-1,3-benzodioxol-2-yl]benzonitrile]",0.029
20,"C[C@H]1CN(c2cccc(OCc3ccc(Cl)cc3F)n2)CCN1Cc1nc2cc(-c3nnc(C(F)(F)F)[nH]3)ncc2n1C[C@@H]1CCO1 [Compound 480a, (2S)-4-{6-[(4-chloro-2-fluorophenyl)methoxy]pyridin-2-yl}-2-methyl-1-[(3-{[(2S)-oxetan-2-yl]methyl}-6-[5-(trifluoromethyl)-4H-1,2,4-triazol-3-yl]-3H-imidazo[4,5-c]pyridin-2-yl)methyl]piperazine]",0.018
21,"CC1(c2ccc(Cl)cc2F)Oc2cccc(C3CCN(Cc4nc5cc(-c6noc(=O)[nH]6)ccc5n4CC4(C#N)CC4)CC3)c2O1 (stereo not shown) [Compound 231a, 1-((2-((4-(2-(4-chloro-2-fluorophenyl)-2-methylbenzo[d][1,3]dioxol-4-yl)piperidin-1-yl)methyl)-5-(5-oxo-4,5-dihydro-1,2,4-oxadiazol-3-yl)-1H-benzo[d]imidazol-1-yl)methyl)cyclopropane-1-carbonitrile]",0.031
22,"Fc1cc(Cl)ccc1COc1ncccc1C1CCN(Cc2nc3cc(-c4nnc(C(F)(F)F)[nH]4)ccc3n2C[C@@H]2CCO2)CC1 [Compound 393a, 2-[(4-{2-[(4-chloro-2-fluorophenyl)methoxy]pyridin-3-yl}piperidin-1-yl)methyl]-1-{[(2S)-oxetan-2-yl]methyl}-5-[5-(trifluoromethyl)-4H-1,2,4-triazol-3-yl]-1H-1,3-benzodiazole]",0.063
